Measurements reported in patent publication US7241893B2, “Thiazolinone 2-substituted quinolines” (Hoffman-La Roche Inc., priority 2004, dated 2007).

The molecules below were run against T1, recombinant human CDK1/Cyclin B complex (Homo sapiens, UniProt P06493) (assay: CDK1/Cyclin B kinase assay (FlashPlate or HTRF)). Conditions: Rb protein substrate, Ki=IC50/(1+[S]/Km).
T1 construct: made in house; host or cells: High Five insect cells (baculovirus) for CDK1/GST-cyclin B; E. coli M15 for the Rb substrate
T1 sequence (P06493 whole entry): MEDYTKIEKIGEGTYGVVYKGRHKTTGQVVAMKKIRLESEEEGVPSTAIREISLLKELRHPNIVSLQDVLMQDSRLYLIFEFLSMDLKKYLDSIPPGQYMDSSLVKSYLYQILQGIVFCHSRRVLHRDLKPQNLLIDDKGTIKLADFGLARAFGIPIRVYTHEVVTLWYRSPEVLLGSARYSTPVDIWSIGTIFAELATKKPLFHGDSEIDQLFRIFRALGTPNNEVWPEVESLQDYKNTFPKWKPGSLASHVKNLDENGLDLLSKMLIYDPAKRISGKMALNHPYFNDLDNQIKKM
T1 sequence (P14635 whole entry partner): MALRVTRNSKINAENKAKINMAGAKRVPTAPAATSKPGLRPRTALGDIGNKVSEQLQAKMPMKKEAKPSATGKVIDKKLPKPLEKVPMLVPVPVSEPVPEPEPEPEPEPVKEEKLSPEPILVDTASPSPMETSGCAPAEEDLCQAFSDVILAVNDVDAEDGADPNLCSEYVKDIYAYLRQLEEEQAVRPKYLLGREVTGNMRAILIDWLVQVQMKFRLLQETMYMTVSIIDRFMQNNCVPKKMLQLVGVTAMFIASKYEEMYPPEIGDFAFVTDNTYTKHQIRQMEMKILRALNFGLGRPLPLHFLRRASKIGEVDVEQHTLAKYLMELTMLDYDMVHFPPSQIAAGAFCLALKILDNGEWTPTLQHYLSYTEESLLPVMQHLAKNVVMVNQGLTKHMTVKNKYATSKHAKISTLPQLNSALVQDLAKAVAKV
Format: biochemical
Experimental: To determine inhibition of CDK1 activity, either FlashPlate™ (NEN™-Life Science Products) assay or HTRF assay was performed. Both types of kinase assays were carried out using recombinant human CDK1/Cyclin B complex. GST-cyclinB (GST-cycB) and CDK1 cDNA clones in baculovirus vectors were provided by Dr. W. Harper at the Baylor College of Medicine, Houston, Tex. Proteins were co-expressed in High Five™ insect cells and the complex was purified on glutathione Sepharose resin (Pharmacia, Piscataway, N.J.) as previously described (Harper, J. W. et al. Cell 1993, 75, 805–816). A 6x-Histidine tagged truncated form of retinoblastoma (Rb) protein (amino acid 386–928) was used as the substrate for the CDK1/Cyclin B assay (the expression plasmid was provided by Dr. Veronica Sullivan, Department of Molecular Virology, Roche Research Centre, Welwyn Garden City, United Kingdom). The Rb protein is a natural substrate for phosphorylation by CDK1 (see Herwig and Strauss Eur. J. Biochem. Vol. 246 (1997) pp. 581–601 and the references cited therein). The expression of the 62 Kd protein was under the control of an IPTG inducible promoter in an M15 E. coli strain. Cells were lysed by sonication and purification was carried out by binding lysates at pH 8.0 to a Ni-chelated agarose column pretreated with 1 mM imidazole. The resin was then washed several times with incrementally decreasing pH buffers to pH 6.0, and eluted with 500 mM imidazole. Eluted protein was dialysed against 20 mM HEPES pH 7.5, 30% glycerol, 200 mM NaCl, and 1 mM DTT. Purified Rb fusion protein stocks were quantitated for protein concentration, aliquoted, and stored at −70° C.
For the FlashPlate kinase assay, 96-well FlashPlates were coated with Rb protein at 10 μg/ml, using 100 μl per well. Plates were incubated at 4° C. overnight or at room temperature for 3 hours on a shaker. To control for nonspecific phosphorylation, one row of wells was coated with 100 μl/well coating buffer (20 mM HEPES, 0.2 M NaCl). Plates were then washed twice with wash buffer (0.01% Tween 20 in phosphate-buffered saline). Compounds to be tested (“test compounds”) were added to the wells at 5× final concentration. Reactions were initiated by immediate addition of 40 μl reaction mix (25 mM HEPES, 20 mM MgCl2, 0.002% Tween 20, 2 mM DTT, 1 [M ATP, 4 nM 33P-ATP) and a sufficient amount of enzyme to give counts that were at least 10-fold above background. Plates were incubated at room temperature on a shaker for 30 minutes. Plates were washed four times with the wash buffer, sealed, and counted on the TopCount scintillation counter (Packard Instrument Co., Downers Grove, Ill.]. The percent inhibition of Rb phosphorylation, which is a measure of the inhibition of CDK activity, was determined according to the following formula:
[formula] where “test compound” refers to the average counts per minute of the test duplicates, “nonspecific” refers to the average counts per minute when no CDK1/Cyclin B, etc., was added, and “total” refers to the average counts per minute when no compound was added. […] The value of the inhibitor constant Ki is calculated by the following: Ki=IC50/(1+[S]/Km), where [S] is the ATP concentration and Km is Michaelis constant.
The Homogeneous Time Resolved Fluorescence (HTRF) kinase assay was carried out in 96-well polypropylene plates (BD Biosciences, Bedford, Mass.). […]

Row | Compound | Ki [nM]
1 | CCOc1cc(N)nc2ccc(/C=C3\SC(N)=NC3=O)cc12 [Example 3, 2-Amino-5-(2-amino-4-ethoxy-quinolin-6-ylmethylene)-thiazol-4-one] | 30
2 | CCOc1cc(NC(C)=O)nc2ccc(/C=C3\SC(NCC4COCCO4)=NC3=O)cc12 (centres unmarked) [Example 9] | 3240
3 | CCOc1cc(NC(C)=O)nc2ccc(/C=C3\SC(N)=NC3=O)cc12 [Example 7, N-(6-{2-Amino-4-oxo-4H-thiazol-5-ylidenemethyl}-4-ethoxy-quinolin-2-yl)-acetamide] | 97
4 | Nc1ccc2cc(/C=C3\SC(N[C@@H]4C[C@H]4c4ccccc4)=NC3=O)ccc2n1 [Example 1, 5-[1-(2-Amino-quinolin-6-yl)-meth-(Z)-ylidene]-2-((1R,2S)-2-phenyl-cyclopropylamino)-thiazol-4-one; compound with trifluoro-acetic acid] | 23
5 | CCOc1cc(NC(C)=O)nc2ccc(/C=C3\SC(NC4CC4)=NC3=O)cc12 [Example 5, N-[6-(2-Cyclopropylamino-4-oxo-4H-thiazol-5-ylidenemethyl)-4-ethoxy-quinolin-2-yl]-acetamide] | 85
